# Entries after “also recorded” stand apart in the source; their conditions may differ.
# Experiments:
# [1] = molecular target: T1, FKBP12 (Homo sapiens, UniProt P62942); assay: FKBP12 binding affinity, fluorescent probe displacement assay
# T1 construct: Proteros biostructures GmbH (ran the assay)
# Description: Thermo Fisher Scientific catalog no. A15112) in 50 mM HEPES pH 7.5, 0.01% polysorbate 20, 1 mM EGTA and 10 mM MnCl 2. Compounds were diluted in DMSO, and assay was initiated by mixing 160 nl of compound with 16 μL of assay mixture, resulting in a final DMSO
# concentration of 1%. Reactions were mixed for 30 s on an orbital shaker and incubated for 1 h at
# [2] = tested on: AKT S473 phosphorylation (mTORC2); assay: AlphaLISA/MSD analysis of AKT phosphorylation in MDA-MB-468 cells; format: cell-based; conditions: Homo sapiens; MDA-MB-468 cells; read-out: pAKT IC50
# Description: (§1) Cell culture and reagents. Cells were obtained from ATCC, grown in appropriate medium supplemented with 10% fetal bovine serum and 1% penicillin/streptomycin and maintained at 37 °C in a humidified incubator at 5% CO 2.
# (§2) AlphaLISA and MesoScale Discovery (MSD) analysis of 4EBP1, S6K and AKT phosphorylation. mTOR substrate phosphorylation in MDA-MB-468 cells was assayed using AlphaLISA SureFire Ultra kits for p4EBP1 Thr37/46, p-P70S6K Thr389 and p-AKT1/2/3 Ser473 (PerkinElmer), and MSD Multi-Array Assay Systems for Phospho-4EBP1 (Thr37/46) and Phospho-AKT (Ser473) (MSD). Cells were seeded at 25,000 cells per well and exposed the next day to serial three-fold dilutions of compounds in complete medium with 0.1% dimethylsulfoxide (DMSO). After indicated incubation times, cells were lysed and AlphaLISA or MSD performed according to the manufacturers’ protocols. Samples were read using an EnVision Multilabel Plate Reader (PerkinElmer) using standard AlphaLISA settings or using an MSD plate reader. Data were plotted as a function of logM [compound] with a sigmoidal concentration response (variable slope) model fitted to the data to estimate the inhibitor half-maximum effective concentration (EC 50) in Prism 7 (GraphPad). Alternatively, results were analyzed as percentage of control in which 0% was set as signal from 1 μM Torin1 and 100% was set as the mean of DMSO wells on each plate, and inhibitor EC 50 was estimated as described
# [3] = tested on: 4EBP1 T37/T46 phosphorylation (mTORC1); assay: AlphaLISA/MSD analysis of 4EBP1 phosphorylation in MDA-MB-468 cells; format: cell-based; conditions: for IC50: Homo sapiens, MDA-MB-468 cells, read-out: p4EBP1 IC50
# Description: as §1, §2
# [4] = molecular target: T2, FKBP12-FRB (Homo sapiens, UniProt P42345+P62942); assay: TR-FRET ternary complex assay; format: binding; conditions: at the assay detection limit
# T2 construct: human mTOR (residues 1360-2549); purchased Thermo Fisher Scientific (ran the assay)
# Description: Proteros biostructures GmbH, using a fluorescent probe displacement assay. […]
# same conditions, with 6 nM fluorescent probe present. 50 nL compound in DMSO was added to […]
# 11 different concentrations of compound with a 3-fold dilution factor were tested. After a 6 h incubation at room temperature acceptor fluorescence was read on a plate reader. […]
# displacement) were calculated using standard fitting algorithms. The reporter probe is used at a concentration reflecting the tenfold concentration of its own Kd (probe) value. Thus, according to the Cheng Prusoff equation, the Kd value can be calculated with Kd = IC 50 / (1 + (([10 x Kd probe]) / [Kd probe]) = IC 50 / 11.
# TR–FRET ternary complex assay. Assay was performed by Thermo Fisher Scientific, using a modification of a previously described protocol. 1 A homogeneous assay mixture was prepared […]
# Thermo Fisher Scientific catalog no. A15112) in 50 mM HEPES pH 7.5, 0.01% polysorbate 20, 1 mM EGTA and 10 mM MnCl 2. […]
# Nanosyn Lipid Kinase screen. Biochemical inhibition of lipid and related protein kinases was determined by Nanosyn (Santa Clara, CA). […]
# was determined by detection of fluorescent substrates using a microfluidic electrophoresis mobility shift assay with a LabChip3000 instrument (Caliper/PerkinElmer). […]
# [5] = tested on: p-P70S6K Thr389; assay: AlphaLISA/MSD analysis of S6K phosphorylation in MDA-MB-468 cells; format: cell-based; conditions: MDA-MB-468 cells; for IC50: Homo sapiens, read-out: pS6K IC50
# Description: as §1, §2
# [6] = tested on: tumor p4EBP1; assay: Tumor PD after a single dose in the MCF-7 CDX model; format: in vivo, mice; conditions: MCF-7 CDX
# [7] = tested on: NCI-H2122 NSCLC CDX; assay: NCI-H2122 NSCLC CDX model; format: in vivo; conditions: RMC-6272 10 mg/kg ip once weekly; sotorasib 100 mg/kg po qd; single agents or combination
# Description: groups when mean tumor volume reached 400–600 mm 3. Tumor and plasma samples were collected for PK and PD analysis at indicated time points after a single dose of indicated […]
# doses. Everolimus was formulated in v/v/v/, 30/5/65 Propylene glycol/Tween 80/H 2O.
# NCI-H2122 xenograft studies. Female Balb/c nude mice (Beijing V.R Biotechnology Co. […]
# per inoculation. When mean tumor volume reached between 150–200 mm 3, mice were […]
# Transcutol/Solutol HS 15/H 2O. Sotorasib (AMG 510) was administered by oral gavage at 100 mg/kg daily and formulated in 2% (w/v) HPMC E-50, 0.5% Tween 80 in 50 mM sodium citrate […]
# In vivo pharmacodynamics. Snap frozen tumors collected were homogenized with MSD complete lysis buffer (as prepared according to Meso Scale Discovery kit protocol) using PreCellys Bead Shaker (Bertin Instruments) according to manufacturer's protocol. Phospho-4E-BP1(Thr37/46) Whole Cell Lysate Kit (Meso Scale Discovery) was used to quantify phosphorylation of 4E-BP1 in the tumors according to manufacturer's protocol.
# Expression and purification of FKBP12, FRB domain, and RHEB-GTPγS. DNA pET28
# [8] = tested on: Candida albicans; conditions: 10 strains of yeast Candida albicans; cited from earlier work
# T1 sequence (P62942 whole entry): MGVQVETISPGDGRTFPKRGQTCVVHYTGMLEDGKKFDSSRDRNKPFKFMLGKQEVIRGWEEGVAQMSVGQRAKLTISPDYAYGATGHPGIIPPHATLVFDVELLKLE
# T2 sequence (P62942 whole entry, the tested form may be a part): as the sequence (P62942 whole entry) above
# T2 sequence (P42345 1360-2549 limits assumed): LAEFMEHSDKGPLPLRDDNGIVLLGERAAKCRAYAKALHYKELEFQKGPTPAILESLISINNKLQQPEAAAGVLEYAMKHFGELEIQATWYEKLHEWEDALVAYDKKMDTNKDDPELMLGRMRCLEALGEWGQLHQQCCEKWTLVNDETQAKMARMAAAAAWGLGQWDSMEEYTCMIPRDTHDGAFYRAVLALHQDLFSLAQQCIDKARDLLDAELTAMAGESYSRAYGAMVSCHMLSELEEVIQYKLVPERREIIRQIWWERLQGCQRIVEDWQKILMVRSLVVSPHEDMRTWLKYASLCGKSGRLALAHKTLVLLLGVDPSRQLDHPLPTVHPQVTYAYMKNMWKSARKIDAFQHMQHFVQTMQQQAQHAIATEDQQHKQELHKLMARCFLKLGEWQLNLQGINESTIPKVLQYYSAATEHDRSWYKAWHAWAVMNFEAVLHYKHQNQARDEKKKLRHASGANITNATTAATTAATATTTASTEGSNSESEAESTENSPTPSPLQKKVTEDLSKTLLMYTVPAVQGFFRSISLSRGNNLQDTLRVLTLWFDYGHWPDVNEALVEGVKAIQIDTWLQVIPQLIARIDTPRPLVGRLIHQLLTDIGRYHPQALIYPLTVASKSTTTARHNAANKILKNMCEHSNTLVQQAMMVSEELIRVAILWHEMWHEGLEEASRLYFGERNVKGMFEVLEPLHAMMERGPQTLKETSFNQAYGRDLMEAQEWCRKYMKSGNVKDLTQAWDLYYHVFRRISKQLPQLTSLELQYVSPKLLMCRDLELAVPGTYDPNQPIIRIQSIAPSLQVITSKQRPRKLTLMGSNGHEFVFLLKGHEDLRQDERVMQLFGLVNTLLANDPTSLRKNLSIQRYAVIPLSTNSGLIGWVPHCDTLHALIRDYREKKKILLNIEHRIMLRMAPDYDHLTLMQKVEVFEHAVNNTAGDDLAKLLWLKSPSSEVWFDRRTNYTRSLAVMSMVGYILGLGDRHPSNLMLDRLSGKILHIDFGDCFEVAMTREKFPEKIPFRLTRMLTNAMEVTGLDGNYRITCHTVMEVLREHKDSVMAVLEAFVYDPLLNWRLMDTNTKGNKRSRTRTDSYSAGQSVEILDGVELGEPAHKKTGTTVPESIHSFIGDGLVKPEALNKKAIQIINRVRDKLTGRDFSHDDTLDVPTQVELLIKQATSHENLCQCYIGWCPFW
SMILES,IC50 [2] [nM],IC50 [3] [nM],IC50 [5] [nM],also measured
"CO[C@H]1C[C@@H]2CC[C@@H](C)[C@@](O)(O2)C(=O)C(=O)N2CCCC[C@H]2C(=O)O[C@H]([C@H](C)C[C@@H]2CC[C@@H](O)[C@H](OC)C2)C[C@@H](OC)[C@H](C)/C=C(\C)[C@@H](O)[C@@H](OC)C(=O)[C@H](C)C[C@H](C)/C=C/C=C/C=C/1C [compound 12, C32-methoxy rapamycin]",> 1000,> 1000,0.37,Kd [1]: 701 nM; decrease in affinity for FKBP12 relative to rapamycin 1 [1]: ~1600 fold; EC50 [4]: < 10 nM; decrease in potency (pS6K) relative to rapamycin 1 [5]: 6 fold
"CO[C@H]1C[C@@H]2CC[C@@H](C)[C@@](O)(O2)C(=O)C(=O)N2CCCC[C@H]2C(=O)O[C@H]([C@H](C)C[C@@H]2CC[C@@H](OCCO)[C@H](OC)C2)CC(=O)[C@H](C)/C=C(\C)[C@@H](O)[C@@H](OC)C(=O)[C@H](C)C[C@H](C)/C=C/C=C/C=C/1C [compound 4, everolimus, reference compound]",> 1000,> 1000,0.07,"effect on tumor p4EBP1 levels ([6]; single dose (38, 40 ip; everolimus 5 mg/kg oral)): minimal effect"
"CC(C)n1nc(-c2ccc3oc(N)nc3c2)c2c(N)ncnc21 [compound 5, sapanisertib, reference compound]",1.8,–,–,inhibition of tumor p4EBP1 ([6]; 4 h after intraperitoneal dosing at 1 mg/kg): > 80%
CO[C@H]1C[C@@H]2CC[C@@H](C)[C@@](O)(O2)C(=O)C(=O)N2CCCC[C@H]2C(=O)O[C@H]([C@H](C)C[C@@H]2CC[C@@H](OC(=O)NCCOCCOCCOCCOCCOCCOCCOCCOCCC(=O)NCCCCn3nc(-c4ccc5oc(N)nc5c4)c4c(N)ncnc43)[C@H](OC)C2)CC(=O)[C@H](C)/C=C(\C)[C@@H](O)[C@@H](OC)C(=O)[C@H](C)C[C@H](C)/C=C/C=C/C=C/1C [compound 29],3.6,1.7,0.61,–
"CO[C@H]1C[C@@H]2CC[C@@H](C)[C@@](O)(O2)C(=O)C(=O)N2CCCC[C@H]2C(=O)O[C@H]([C@H](C)C[C@@H]2CC[C@@H](O)[C@H](OC)C2)C[C@@H](O)[C@H](C)/C=C(\C)[C@@H](O)[C@@H](OC)C(=O)[C@H](C)C[C@H](C)/C=C/C=C/C=C/1C [compound 11, C32-hydroxy rapamycin]",–,–,–,Kd [1]: 13.3 nM
C=CC(=O)N1CCN(c2nc(=O)n(-c3c(C)ccnc3C(C)C)c3nc(-c4c(O)cccc4F)c(F)cc23)[C@@H](C)C1 [sotorasib],–,–,–,antitumor activity (tumor regressions) in NCI-H2122 CDX model [7]: Neither; also recorded: only modest inhibition of tumor growth
COc1ccc(-c2ccc3ncc4c(c3c2)n(-c2ccc(N3CCN(C(=O)CCOCCOCCOCCOCCOCCOCCn5cc(CCCCO[C@@H]6CC[C@@H](C[C@@H](C)[C@@H]7CC(=O)[C@H](C)/C=C(\C)[C@@H](O)[C@@H](OC)C(=O)[C@H](C)C[C@H](C)/C=C/C=C/C=C(\C)[C@@H](OC)C[C@@H]8CC[C@@H](C)[C@@](O)(O8)C(=O)C(=O)N8CCCC[C@H]8C(=O)O7)C[C@H]6OC)nn5)CC3)c(C(F)(F)F)c2)c(=O)n4C)cn1 [compound 26],0.74,0.08,0.03,–
"CO[C@H]1C[C@@H]2CC[C@@H](C)[C@@](O)(O2)C(=O)C(=O)N2CCCC[C@H]2C(=O)O[C@H]([C@H](C)C[C@@H]2CC[C@@H](O)[C@H](OC)C2)CC(=O)[C@H](C)/C=C(\C)[C@@H](O)[C@@H](OC)C(=O)[C@H](C)C[C@H](C)/C=C/C=C/C=C/1C [compound 1, Rapamycin, reference compound]",> 1000,–,–,minimum inhibitory concentration [8]: 0.02 to 0.2 µg/mL
CO[C@H]1C[C@@H]2CC[C@@H](C)[C@@](O)(O2)C(=O)C(=O)N2CCCC[C@H]2C(=O)O[C@H]([C@H](C)C[C@@H]2CC[C@@H](OCCCCc3cn(CCOCCOCCOCCOCCOCCOCCC(=O)NCCCCn4nc(-c5cc6cc(O)ccc6[nH]5)c5c(N)ncnc54)nn3)[C@H](OC)C2)CC(=O)[C@H](C)/C=C(\C)[C@@H](O)[C@@H](OC)C(=O)[C@H](C)C[C@H](C)/C=C/C=C/C=C/1C [compound 25],120,370,0.59,reduction in mTORC1 p4EBP1 activity on going from 8 PEG units to 6 PEG units ([3]; versus the 8 PEG analog): > 250 fold
CO[C@H]1C[C@@H]2CC[C@@H](C)[C@@](O)(O2)C(=O)C(=O)N2CCCC[C@H]2C(=O)O/C([C@H](C)C[C@@H]2CC[C@@H](OC(=O)NCCOCCOCCOCCOCCOCCOCCOCCOCCC(=O)N3CCc4cc(Cn5nc(-c6ccc7oc(N)nc7c6)c6c(N)ncnc65)ccc4C3)[C@H](OC)C2)=C/C(=O)[C@H](C)/C=C(\C)[C@@H](O)[C@@H](OC)C(=O)[C@H](C)C[C@H](C)/C=C/C=C/C=C/1C [compound 33],> 1000,320,80,–
